In this assay the target is T1, B-RAF V600E (Homo sapiens, UniProt P15056, V600E).
T1 construct: expressed in transfected cells; host or cells: T-Rex 293 cells (Invitrogen #R71007)
As to the kind of experiment: Target protein degradation, assay C: T-Rex 293 cells, HA-BRAF_V600E, 384 well format. The assay is classed as cell-based. The conditions noted are these: T-Rex 293 HA-BRAF_V600E cells, 24 hours, Examples 83-269; for Dmax: T-REx-293, Assay C. The procedure: C. T-Rex 293 Cells (384 Well Format)
T-Rex 293 cells were purchased from Invitrogen (#R71007), and stably transfected with a pcDNA4/TO_HA-BRAF_V600E construct, using 400 ug Zeocin for selection. V600E cells are plated in DMEM media (Gibco #11965118) containing 10% FBS (Gibco #16000044), 1% penicillin-streptomycin (ThermoFisher #15140122), 1:250 zeocin (Invitrogen #R-25005), and 1 ng/mL doxycycline (Selleckchem #4163) at a density of 7,500 cells/well in 45 μl on PDL coated, black clear bottom 384 well plates (Corning #354663) and incubated at 37° C.+5% CO2 for 24 hours. The following day, PROTAC compounds in a 1:3 11 point dilution are diluted into DMEM media using an Agilent Bravo. 5 ul of PROTACs suspended in DMEM media are added to the cells, with a final assay concentration ranging from 300 nM to 5 pM in 0.5% DMSO. Plates are incubated at 37° C.+5% CO2 for 24 hours. At the end of treatment, media is aspirated, and cells are fixed in 50 uL 4% PFA (EMS #15710) in PBS++(PBS, 1 mM CaCl, 1 mM MgCl) at RT for 15 minutes. Cells are washed 2× with 60 uL PBS++ and permeabilized in 50 uL 1% Triton X-100 (Sigma #93443) in PBS++ for 5 minutes at RT. Cells are washed in PBS++ prior to blocking with 50 uL Licor blocking buffer (Licor #927-60001) for 1 hour at RT. HA-tagged BRAF was stained using 50 uL HA antibody (CST #3724) at 1:1000 in Licor blocking buffer for two hours at RT. Primary is aspirated before adding 50 ul of secondary antibody solution containing 1:1000 Hoechst (ThermoFisher #62249), 1:1000 HCS CellMask Deep Red Stain (ThermoFisher #H32721), and 1:5000 goat anti-rabbit IgG Alexa-Fluor 488 (ThermoFisher #A32731) in PBS++ for 1 hr at RT. Plates are washed 4× with 60 uL PBS++, then sealed with Adhesive Black Light Absorbing Film (VWR #89087-692) and imaged on the ThermoFisher CX7 PRO high content instrument. BRAF intensity is quantified in HCS Studio software (ThermoFisher), using a custom script, exported, analyzed using KNIME, and curve curation is performed in an ELN (Scilligence). Cell toxicity is measured via comparing number of nuclei in PROTAC treated wells to DMSO controls.
The concentration of an exemplary compound that leads to half maximal degradation (DC50) as well as the maximum degradation observed (Dmax, conventionally expressed as a percentage of control) is shown below in Table 2.

T1 sequence (P15056 whole entry V600E): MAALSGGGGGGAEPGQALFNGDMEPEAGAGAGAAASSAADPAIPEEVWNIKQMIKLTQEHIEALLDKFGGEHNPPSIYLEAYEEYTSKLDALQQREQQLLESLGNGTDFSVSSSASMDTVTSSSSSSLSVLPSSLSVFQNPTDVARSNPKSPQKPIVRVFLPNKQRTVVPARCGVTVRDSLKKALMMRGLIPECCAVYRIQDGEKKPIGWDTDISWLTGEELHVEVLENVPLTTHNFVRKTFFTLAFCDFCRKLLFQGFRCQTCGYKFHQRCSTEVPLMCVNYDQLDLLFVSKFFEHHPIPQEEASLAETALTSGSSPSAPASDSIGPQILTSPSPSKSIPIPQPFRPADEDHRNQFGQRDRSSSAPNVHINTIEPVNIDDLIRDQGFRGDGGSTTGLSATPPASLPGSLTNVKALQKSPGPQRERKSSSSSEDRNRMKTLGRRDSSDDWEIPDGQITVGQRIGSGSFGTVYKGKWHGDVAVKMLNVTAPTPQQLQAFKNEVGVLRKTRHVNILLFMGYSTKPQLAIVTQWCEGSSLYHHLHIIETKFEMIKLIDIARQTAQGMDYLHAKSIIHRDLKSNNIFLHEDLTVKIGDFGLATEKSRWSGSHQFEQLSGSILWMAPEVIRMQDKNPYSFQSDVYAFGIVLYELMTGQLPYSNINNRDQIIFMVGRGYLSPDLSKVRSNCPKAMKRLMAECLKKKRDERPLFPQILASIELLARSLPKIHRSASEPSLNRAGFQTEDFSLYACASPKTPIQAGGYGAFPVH

The term DC50 denotes the concentration at which degradation of the target reaches its halfway point. Read a low DC50 as a more potent degrader. A word on the Dmax: it is the greatest extent of degradation seen. As for `Cc1cc(N2CCC(CN3CCN(c4ccc(-n5cnc6ccc(Oc7c(F)ccc(NS(=O)(=O)N8CC[C@@H](F)C8)c7C#N)cc6c5=O)cc4)CC3)CC2)c(F)c2c1C(=O)N(C1CCC(=O)NC1=O)C2` (single isomer, unassigned) [Example 120, (3R)-N-(2-cyano-3-{[3-(4-{4-[(1-{2-[(3R*)-2,6-dioxopiperidin-3-yl]-4-fluoro-7-methyl-1-oxo-2,3-dihydro-1H-isoindol-5-yl}piperidin-4-yl)methyl]piperazin-1-yl}phenyl)-4-oxo-3,4-dihydroquinazolin-6-yl]oxy}-4-fluorophenyl)-3-fluoropyrrolidine-1-sulfonamide], the greatest degradation seen (Dmax) is no more than 35%. Besides, the DC50 (Assay C) lay within 5 to 50 nM.
Regarding `Cc1cc(N2CCC(CN3CCN(c4ccc(-n5cnc6ccc(Oc7c(F)ccc(NS(=O)(=O)N8CC[C@@H](F)C8)c7C#N)cc6c5=O)cc4)CC3)CC2)c(F)c2c1C(=O)N(C1CCC(=O)NC1=O)C2` (single isomer, unassigned) [Example 121, (3R)-N-(2-cyano-3-{[3-(4-{4-[(1-{2-[(3R*)-2,6-dioxopiperidin-3-yl]-4-fluoro-7-methyl-1-oxo-2,3-dihydro-1H-isoindol-5-yl}piperidin-4-yl)methyl]piperazin-1-yl}phenyl)-4-oxo-3,4-dihydroquinazolin-6-yl]oxy}-4-fluorophenyl)-3-fluoropyrrolidine-1-sulfonamide], for the setting “Assay C”, the “B-RAF V600E DMax (%)” value was “B (35 < B < 70)” and the DC50 was 50 to 500 nM.
The compound `CCN(C)S(=O)(=O)Nc1ccc(F)c(Oc2ccc3ncn(-c4ccc(N5CCC(CN6CCC(c7ccc8c(c7)CN(C7CCC(=O)NC7=O)C8=O)CC6)CC5)cc4)c(=O)c3c2)c1C#N` (stereo not drawn) [Example 115, 2-[(3-{4-[4-({4-[2-(2,6-dioxopiperidin-3-yl)-1-oxo-2,3-dihydro-1H-isoindol-5-yl]piperidin-1-yl}methyl)piperidin-1-yl]phenyl}-4-oxo-3,4-dihydroquinazolin-6-yl)oxy]-6-{[ethyl(methyl)sulfamoyl]amino}-3-fluorobenzonitrile] showed a Dmax of 35 to 70%. Also, the DC50 (Assay C) fell in the range of 50 to 500 nM.
The matching figures for `N#Cc1c(NS(=O)(=O)N2CC[C@@H](F)C2)ccc(F)c1Oc1ccc2ncn(-c3ccc(N4CCN(CC5CCN(c6ccc7c(c6)CN(C6CCC(=O)NC6=O)C7=O)CC5)CC4)s3)c(=O)c2c1` (stereo partly drawn) [Example 116, (3R)-N-{2-cyano-3-[(3-{5-[4-({1-[2-(2,6-dioxopiperidin-3-yl)-1-oxo-2,3-dihydro-1H-isoindol-5-yl]piperidin-4-yl}methyl)piperazin-1-yl]thiophen-2-yl}-4-oxo-3,4-dihydroquinazolin-6-yl)oxy]-4-fluorophenyl}-3-fluoropyrrolidine-1-sulfonamide]: no more than 35% and 50 to 500 nM.
In turn, `C[C@H]1CN(CC2CCN(c3ccc4c(c3F)CN([C@H]3CCC(=O)NC3=O)C4=O)CC2)CCN1c1ccc(-n2cnc3ccc(Oc4c(F)ccc(NS(=O)(=O)N5CC[C@@H](F)C5)c4C#N)cc3c2=O)cc1` [Example 117, (3R)-N-{2-cyano-3-[(3-(4-[(2S)-4-[(1-{2-[(3S)-2,6-dioxopiperidin-3-yl]-4-fluoro-1-oxo-2,3-dihydro-1H-isoindol-5-yl}piperidin-4-yl)methyl]-2-methylpiperazin-1-yl]phenyl}-4-oxo-3,4-dihydroquinazolin-6-yl)oxy]-4-fluorophenyl}-3-fluoropyrrolidine-1-sulfonamide] registered a Dmax of 35 to 70%. In addition, where the note is “Assay C”, the DC50 was 50 to 500 nM.
As to `C[C@H]1CN(CC2CCN(c3ccc4c(c3F)CN([C@@H]3CCC(=O)NC3=O)C4=O)CC2)CCN1c1ccc(-n2cnc3ccc(Oc4c(F)ccc(NS(=O)(=O)N5CC[C@@H](F)C5)c4C#N)cc3c2=O)cc1` [Example 118, (3R)-N-{2-cyano-3-[(3-(4-[(2S)-4-[(1-{2-[(3R)-2,6-dioxopiperidin-3-yl]-4-fluoro-1-oxo-2,3-dihydro-1H-isoindol-5-yl}piperidin-4-yl)methyl]-2-methylpiperazin-1-yl]phenyl}-4-oxo-3,4-dihydroquinazolin-6-yl)oxy]-4-fluorophenyl}-3-fluoropyrrolidine-1-sulfonamide], the DC50 (Assay C) was greater than 500 nM.
Same read-out and setting: as for `N#Cc1c(NS(=O)(=O)N2CC[C@@H](F)C2)ccc(F)c1Oc1ccc2ncn(-c3ccc(N4CCC(CN5CC6(CC(c7ccc8c(c7)C(=O)N(C7CCC(=O)NC7=O)C8=O)C6)C5)CC4)cc3)c(=O)c2c1` (stereo partly drawn) [Example 119, (3R)-N-{2-cyano-3-[(3-{4-[4-({6-[2-(2,6-dioxopiperidin-3-yl)-1,3-dioxo-2,3-dihydro-1H-isoindol-5-yl]-2-azaspiro[3.3]heptan-2-yl}methyl)piperidin-1-yl]phenyl}-4-oxo-3,4-dihydroquinazolin-6-yl)oxy]-4-fluorophenyl}-3-fluoropyrrolidine-1-sulfonamide], the figure is greater than 500 nM.

The values are drawn from patent US11957759B1, “Rapidly accelerated fibrosarcoma (RAF) degrading compounds and associated methods of use” (Arvinas Operations, Inc., priority 2022, dated 2024).
